Measurements: patent US11925645B2, “Enhanced caffeinated beverage composition” (Ortho-Nutra, LLC, priority 2013, dated 2024)
Read-outs that look alike come from different tables or passages of the source.

What was measured:
[1] = Acute TeaCrine crossover trial: hemodynamics and side effect profiles; format: in vivo, human
Method: Anchored VAS questionnaires were used to detect changes in various aspects of physical and mental energy and performance; side effect profiles, hemodynamics and biochemical markers of safety were also collected over a 3-hr post-dosing period. A subset of 6 subjects underwent a separate 7-day, open-label, repeated dose study comparing 100 mg, 200 mg and 400 mg of TC.
Physical activity levels and health history were determined using standardized questionnaires. Heart rate and blood pressure were measured using an Omron HEM-780. Standing height was determined using a wall-mounted stadiometer. […] Medical Scale. A 100 mm anchored VAS questionnaire for energy, fatigue, and concentration was distributed at each acute lab session; additional VAS questionnaires were distributed for the daily assessment over a 6-hour period during the 7-day subset study. Quest Diagnostics (Pittsburgh, Pa.) was utilized to transport and analyze all blood samples. For each laboratory session, subjects reported to the lab well hydrated, 10-12 hours postprandial, and at least 24-hours after their last exercise session.
Statistical Analyses for Example 1. Descriptive statistics (mean, median, SD, 95% CIs) were used to quantify subjects physical characteristics. […] Effect sizes were also calculated. […]

[2] = Theacrine-caffeine interaction study: single oral dose plasma pharmacokinetics (LC-MS/MS, noncompartmental); format: in vivo, human; details: for Vd/F: read-out: Vd/F; for MRT: read-out: MRT; for half-life: read-out: t1/2 (converted)
Excerpt: Theacrine pharmacokinetics in humans has not been systematically characterized. Therefore, one purpose of this study, among others, was to determine theacrine pharmacokinetics and dose-linearity following oral administration in humans.
Eight healthy nonsmokers, including 4 men and 4 women, were recruited for the experiment.
(§1) Study Design and Procedures. […] Theacrine, administered as iTeaCrine.®, was provided by Compound Solutions (Carlsbad, Calif). […] Treatment sequence was randomized using a 4×4 Latin square. There was an approximate 1-week washout period between treatments for all subjects.
(§2) Test Visit Procedures. […] A catheter was inserted into the forearm vein for blood sampling. Duplicate measurements of resting heart rate and blood pressure were taken pre-dose and prior to each timed blood sample. In addition, respiratory rate was counted in one minute and body temperature was measured using an ear scanning thermometer (dual readings taken at each time).
All subjects were instructed to consume their usual diet throughout the study period, with the exception of the actual days of testing. During the two days prior to each test day, subjects recorded all food and drink consumed and attempted to mimic this intake for the two-day period prior to subsequent visits. Diet records were analyzed using nutrient analysis software (Food Processor SQL, version 9.9; ESHA Research, Salem, Oreg.). For the actual test days, standardized meals (meal replacement food bars [Clif “Builder's 20 g Protein Bar”] and ready-to-drink shakes [Orgain Organic Nutrition™]) were provided to the subjects after sample collection at hour 2 and hour 6 (one shake and one-half bar at each time). Subjects were also provided with adequate meal replacement bars and shakes to consume following the 8 hour sample collection. (during their time outside the lab). Each bar contained 280 calories, 10 grams of fat, 29 grams of carbohydrate, and 20 grams of protein. Each shake contained 250 calories, 7 grams of fat, 32 grams of carbohydrate, and 16 grams of protein. No food other than what was provided to the subjects was allowed during each study day, including both time spent in the lab and outside the lab. […] The subjects returned the following morning for the 24 hour blood collection, again in a 10 hour fasted state. The same volume of meal replacement bars or shakes was consumed by each subject during each visit (both in lab and outside lab).
Pharmacokinetic Study. Plasma concentration-time data were evaluated using noncompartmental methods in Phoenix WinNonlin (version 7.0; Pharsight Corporation, Mountain View, Calif) with adjustment for lag time after oral administration. The maximum concentration (Cmax), lag time (talag), and time of maximum concentration (tmax) were determined from the plasma concentration versus time data. The area under the plasma concentration-time curve from time 0 to infinity (was calculated using the trapezoidal rule extrapolated to time infinity). […] The oral clearance (CL/F) was calculated by dividing the oral dose by AUC0-∞. The apparent volume of distribution during the terminal elimination phase (Vz/F) was calculated by dividing CL/F by k. […]

[3] = Theacrine-caffeine interaction study: heart rate, blood pressure, rate pressure product, tolerability; details: at the doses tested, administered alone or in combination
Excerpt: as §1, §2
Differences between treatment group values were determined for systolic blood pressure (SBP), diastolic blood pressure (DBP), rate pressure product, and heart rate. Parametric data were analyzed by paired Student's t tests of mean differences in values between treatment groups. Statistical significance was defined a priori as a 2-sided or <0.05.

[4] = Single dose theacrine, caffeine or combination: subjective feelings on 10 cm visual analog scale; format: in vivo, human
Method: Subjects rated their subjective feelings using a 10 cm visual analog scale at 30 minutes, 1, 2, 3, 4, and 5 hours post ingestion and performed the trail making test (TMT) of cognitive performance at baseline and at hours 2 and 4 post ingestion.

[5] = Fourteen day study of repetitive dosing of theacrine and caffeine: psychometric indices; format: in vivo, human
[6] = cited from earlier work
[7] = both sexes, human, plasma, po, 125 mg
[8] = theacrine 125 mg + caffeine 150 mg versus theacrine 125 mg
[9] = theacrine with caffeine co-administration versus theacrine alone

Cn1c(=O)c2c(n(C)c1=O)n(C)c(=O)n2C [Theacrine, 1,3,7,9-tetramethylpurine-2,6,8-trione]
changes in systemic hemodynamics or side effect profiles ([1]; 200 mg dose of TC, 3-hr post-dosing period): No changes | systemic hemodynamics: systolic and diastolic blood pressure (FIGS. 4 and 5) ([1]; various time intervals after administration): no substantial change | Vd/F ([2]; both sexes, human, plasma, oral, theacrine, Condition 4: Theacrine 125 mg + Caffeine 150 mg, mean ± SD): 35.4 L | dose-adjusted Cmax ([2]; both sexes, human, plasma, po, 25 mg, Cmax, theacrine in plasma, Condition 1: Theacrine 25 mg single oral dose, dose-adjusted, mean ± SD): 34.1 ± 38.9 ng/mL/mg | Vd/F ([2]; both sexes, human, plasma, po, 25 mg, theacrine, Condition 1: Theacrine 25 mg single oral dose, mean ± SD): 48.1 ± 23.4 L | Tmax [2, 7]: 1.8 h | dose-adjusted Cmax ([2]; both sexes, human, plasma, po, 125 mg, Cmax, theacrine in plasma, Condition 2: Theacrine 125 mg single oral dose, dose-adjusted, mean ± SD): 25.6 ± 5.5 ng/mL/mg | Vd/F ([2]; both sexes, human, plasma, po, 125 mg, theacrine, Condition 2: Theacrine 125 mg single oral dose, mean ± SD): 50.5 ± 0.49 L | MRT [2, 7]: 36.8 ± 18.9 h | half-life [2, 7]: 26.1 ± 13.7 h | dose-adjusted Cmax ([2]; both sexes, human, plasma, po, Cmax, theacrine in plasma, Condition 4: Theacrine 125 mg + Caffeine 150 mg single oral dose, dose-adjusted, mean ± SD): 38.6 ± 16.6 ng/mL/mg | MRT ([2]; both sexes, human, plasma, theacrine, Condition 1: Theacrine 25 mg single oral dose, mean ± SD): 24.9 ± 3.5 h | half-life ([2]; both sexes, human, theacrine in plasma, Condition 1: Theacrine 25 mg single oral dose, mean ± SD): 16.5 ± 2.4 h | Tmax ([2]; both sexes, human, theacrine in plasma, Condition 1: Theacrine 25 mg single oral dose, median (range)): 1.8 h | time to reach maximal concentration ([2]; oral administration of theacrine alone): ≤ 2 h | decrease of theacrine oral clearance (CL/F) by caffeine [2, 8]: approximately 30% | decrease of theacrine oral volume of distribution (Vd/F) by caffeine [2, 8]: approximately 30% | theacrine absorption rate (Tmax) and half-life (t1/2) under caffeine co-administration ([2]; theacrine 125 mg + caffeine 150 mg versus theacrine alone): unaffected | absorption following oral administration ([2]; theacrine alone): well absorbed | dose-adjusted theacrine pharmacokinetic parameters, 25 mg versus 125 mg ([2]; theacrine alone): not significantly different | AUC ([2]; theacrine in plasma, Condition 1: Theacrine 25 mg single oral dose, dose-adjusted, mean ± SD): 809 ± 923 ng·h/mL/mg | AUC ([2]; theacrine in plasma, Condition 2: Theacrine 125 mg single oral dose, dose-adjusted, mean ± SD): 736 ± 312 ng·h/mL/mg | dose-adjusted Cmax ([2]; theacrine in plasma, Condition 4: Theacrine 125 mg + Caffeine 150 mg single oral dose, dose-adjusted, mean ± SD): 37.7 ± 16.5 ng/mL/mg | AUC ([2]; theacrine in plasma, Condition 4: Theacrine 125 mg + Caffeine 150 mg, dose-adjusted, mean ± SD): 1,242 ± 1,129 hr * ng/mL/mg | geometric mean ratio of AUC [2, 9]: 1.1 ±0.03 | geometric mean ratio of Cmax [2, 9]: 1.1 ±0.06 | CL/F ([2]; theacrine, Condition 1: Theacrine 25 mg single oral dose, mean ± SD): 2.0 ± 0.9 L/h | CL/F ([2]; theacrine, Condition 2: Theacrine 125 mg single oral dose, mean ± SD): 1.6 ± 0.5 L/h | CL/F ([2]; theacrine, Condition 2: Theacrine 125 mg single oral dose, mean ± SD, listed as theacrine): 1.6 ± 0.49 L/h | CL/F ([2]; theacrine, Condition 4: Theacrine 125 mg + Caffeine 150 mg, mean ± SD): 1.2 ± 0.6 L/h | CL/F ([2]; theacrine, Condition 4: Theacrine 125 mg + Caffeine 150 mg, mean ± SD, listed as theacrine): 1.2 L/h | AUC ([2]; theacrine, theacrine 125 mg alone): 740 ± 310 ng·h/mL/mg | AUC ([2]; theacrine, with caffeine co-administration (theacrine 125 mg + caffeine 150 mg)): 1200 ± 1100 ng·h/mL/mg | effect on baseline hemodynamic parameters, e.g. heart rate and blood pressure [3]: no effect | time post-ingestion at which increase in subjective focus reached statistical significance ([4]; 125 mg theacrine treatment): 3 h | safety and improvement of subjective feelings related to energy ([4]; alone at 125 mg or in combination with caffeine): safe and effective | anxiety [5]: decreased anxiety | psychometric indices of energy, focus, concentration, motivation and mood [5]: still maintained elevated | sensitization or pharmacodynamic tolerance ([6]; repeat dose theacrine studies): absence of either sensitization or pharmacodynamic tolerance | safety, adverse effects on hemodynamic parameters ([6]; theacrine supplementation up to 400 mg/day for 8 weeks): appears to be safe
